Results from US20200297671A1, “METHODS OF AVOIDING EXCIPIENT-BASED ADVERSE EFFECTS AND OF EXPLOITING BIOLOGICAL PROPERTIES OF GRAS COMPOUNDS” (MASSACHUSETTS INSTITUTE OF TECHNOLOGY, priority 2019, published 2020).

What was measured:
Human UGT2B7 = target: T1, Human UGT2B7 (Homo sapiens, UniProt P16662); assay: UGT2B7 inhibition assay (Corning Supersomes, Biovision UGT activity kit); type: biochemical
T1 construct: purchased Corning
T1 sequence (P16662 24-529): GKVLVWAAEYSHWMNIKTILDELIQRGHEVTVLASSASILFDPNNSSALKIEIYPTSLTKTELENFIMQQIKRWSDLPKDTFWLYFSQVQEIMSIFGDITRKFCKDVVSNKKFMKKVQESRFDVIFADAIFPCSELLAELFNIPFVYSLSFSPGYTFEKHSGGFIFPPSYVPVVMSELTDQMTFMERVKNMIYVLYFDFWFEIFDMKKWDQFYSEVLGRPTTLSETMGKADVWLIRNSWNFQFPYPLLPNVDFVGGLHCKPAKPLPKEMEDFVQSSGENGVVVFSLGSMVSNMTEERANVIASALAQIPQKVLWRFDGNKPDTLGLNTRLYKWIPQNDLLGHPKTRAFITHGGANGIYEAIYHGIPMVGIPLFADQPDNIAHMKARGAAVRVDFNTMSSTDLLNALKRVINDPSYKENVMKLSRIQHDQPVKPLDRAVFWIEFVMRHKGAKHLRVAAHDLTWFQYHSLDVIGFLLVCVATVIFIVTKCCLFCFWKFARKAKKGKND
Protocol: UGT2B7 inhibition was measured using Corning® Supersomes™ Human UGT2B7. The inhibition of UGT2B7 was measured using the commercially-available Biovision UGT activity screening kit as previously described. Briefly, 0.1 mg/mL microsomes were mixed with Alamethicin for pore-formation and a proprietary UGT ligand that loses fluorescence after glucuronidation (Biovision). Plates were incubated for 5 minutes at RT and protected from light before the enzymatic reaction was initiated through the addition of UDPGA. […] Diclofenac (1 mM in PBS 1% DMSO) served as a positive inhibitor control.

UGT = UGT tissue assay (liver lysate); type: biochemical, porcine; settings: pig liver lysate, 500 μM
Protocol: Compound mixtures were prepared at 500 μM. Freshly extracted porcine liver was homogenized using a tissue homogenizer. The sample was separated using centrifugation and the supernatant was used as a test sample. Two independent experiments with two different liver extracts were performed as described for the microsomes.

mice = settings: cited from earlier work
patients = settings: cited from earlier work
P-gp = P-gp in vivo experiment (warfarin plasma concentration); design: species or system BALB/c mice; settings: mice
Protocol: A suspension of vitamin A palmitate in 10% DMSO PBS or 10% DMSO PBS buffer control were administered orally to five female BALB/c mice at a dose of 500 mg/kg 15 minutes prior to treatment. Mice were then treated orally with warfarin 20 mg/kg. Blood was sampled after 30 minutes of oral warfarin administration. Warfarin plasma concentrations were determined using LCMS.

## CC(C)C1=CC2=CC[C@@H]3[C@](C)(CCC[C@@]3(C)C(=O)O)[C@H]2CC1 [abietic acid]
Human UGT2B7
  inhibition of UGT2B7 activity in microsomes (FIG. 18): can inhibit UGT2B7 activity
Human UGT2B7; functional in vitro assay, microsomes, 30 minutes
  IC50: 2.2 ± 0.3 µM
UGT
  inhibition of UGT activity ex vivo: successfully inhibited UGT activity
mice
  toxicity in mice: harmless in mice

## OC[C@H]1O[C@@H](O[C@H]2[C@H](O)[C@@H](O)C(O)O[C@@H]2CO)[C@H](O)[C@@H](O)[C@H]1O (some centres unmarked) [lactose]
patients; severe cases of lactose intolerance
  amount affecting individuals: less than 200 mg

## O=C([O-])C1=NN(c2ccc(S(=O)(=O)[O-])cc2)C(=O)C1N=Nc1ccc(S(=O)(=O)[O-])cc1.[Na+].[Na+].[Na+] (centres unmarked) [tartrazine]
patients; tartrazine-containing versus tartrazine-free medications, all patients
  patients with adverse symptoms associated with tartrazine content: about 4%

## CCCCCCCCCCCCCCCC(=O)OC/C=C(C)/C=C/C=C(C)/C=C/C1=C(C)CCCC1(C)C [vitamin A palmitate]
P-gp
  systemic warfarin after oral delivery (FIG. 23): induces an increase of systemic warfarin
P-gp; 500 mg/kg oral 15 minutes before warfarin 20 mg/kg oral, blood after 30 minutes
  increase of oral absorption of warfarin: 31%
